Measurements from ChEMBL document CHEMBL1909046, “DrugMatrix in vitro pharmacology data”.
pIC50, pKi: −log10 of the molar value.

What was measured:
[1] = target: T1, 5-hydroxytryptamine receptor 1A (Rattus norvegicus, UniProt P19327); type: cell membranes, CHO-K1, Membrane; conditions: for IC50: cho-k1; on all read-outs here: in other assays of this panel Not Active means under 50% inhibition at 10 µM
T1 sequence (P19327 whole entry): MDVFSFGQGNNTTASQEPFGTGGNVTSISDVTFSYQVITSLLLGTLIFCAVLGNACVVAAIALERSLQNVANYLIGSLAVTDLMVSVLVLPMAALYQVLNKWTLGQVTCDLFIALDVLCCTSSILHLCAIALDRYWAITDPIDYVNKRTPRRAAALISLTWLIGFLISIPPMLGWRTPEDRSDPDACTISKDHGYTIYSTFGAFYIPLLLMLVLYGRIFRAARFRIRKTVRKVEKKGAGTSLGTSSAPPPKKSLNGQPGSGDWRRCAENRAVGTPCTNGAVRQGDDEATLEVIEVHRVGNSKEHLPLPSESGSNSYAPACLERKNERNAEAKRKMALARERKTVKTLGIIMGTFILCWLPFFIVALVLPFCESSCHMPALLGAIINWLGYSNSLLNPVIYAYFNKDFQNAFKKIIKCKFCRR

[2] = target: T2, Leukotriene C4 synthase (Cavia porcellus, UniProt A6XA80); type: tissue-based, Lung;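 further: enzyme inhibition assay of leukotriene C4 synthase, using LTA4 as the substrate; in other assays of this panel Not Active means under 50% inhibition at 10 µM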
T2 sequence (A6XA80 whole entry): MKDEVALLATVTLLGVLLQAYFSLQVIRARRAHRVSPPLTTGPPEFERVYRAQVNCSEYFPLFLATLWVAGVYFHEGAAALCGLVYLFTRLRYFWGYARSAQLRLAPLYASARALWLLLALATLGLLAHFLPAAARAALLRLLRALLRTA

[3] = DRUGMATRIX: Phorbol Ester radioligand binding (ligand: [3H] PDBu); type: cell membranes, Mus musculus, ICR, Brain, Membrane; conditions: Not Active = under 50% inhibition at 10 µM
[4] = target: Glycine receptor (Rattus norvegicus, UniProt P22771+P24524+P07727+P20781); type: cell membranes, Wistar, Spinal cord, Membrane; further: in other assays of this panel Not Active means under 50% inhibition at 10 µM
[5] = target: Cytochrome P450 2C9 (Homo sapiens, UniProt P11712); conditions: bti-tn-5b1-4; further: in other assays of this panel Not Active means under 50% inhibition at 10 µM
[6] = target: T3, B2 bradykinin receptor (Homo sapiens, UniProt P30411); type: cell membranes, Membrane; conditions: chem-1; further: in other assays of this panel Not Active means under 50% inhibition at 10 µM
T3 sequence (P30411 whole entry): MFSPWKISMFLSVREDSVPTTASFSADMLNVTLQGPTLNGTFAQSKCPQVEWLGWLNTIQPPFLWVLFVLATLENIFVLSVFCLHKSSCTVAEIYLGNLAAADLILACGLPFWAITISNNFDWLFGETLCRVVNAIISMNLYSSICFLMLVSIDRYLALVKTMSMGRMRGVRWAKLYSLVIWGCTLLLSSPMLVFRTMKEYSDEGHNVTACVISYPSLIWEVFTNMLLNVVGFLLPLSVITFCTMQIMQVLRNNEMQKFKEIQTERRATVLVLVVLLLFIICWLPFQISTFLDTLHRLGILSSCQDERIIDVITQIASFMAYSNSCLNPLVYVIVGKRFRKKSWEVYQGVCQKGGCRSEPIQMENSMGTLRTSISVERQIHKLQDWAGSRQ

[7] = target: Adenosine receptor A2a (Homo sapiens, UniProt P29274); assay: DRUGMATRIX: Adenosine A2A radioligand binding (ligand: […]); type: cell membranes, HEK293, Membrane; conditions: Not Active = under 50% inhibition at 10 µM; for IC50: hek293
Adenosine receptor A2a, sequence (P29274 whole entry): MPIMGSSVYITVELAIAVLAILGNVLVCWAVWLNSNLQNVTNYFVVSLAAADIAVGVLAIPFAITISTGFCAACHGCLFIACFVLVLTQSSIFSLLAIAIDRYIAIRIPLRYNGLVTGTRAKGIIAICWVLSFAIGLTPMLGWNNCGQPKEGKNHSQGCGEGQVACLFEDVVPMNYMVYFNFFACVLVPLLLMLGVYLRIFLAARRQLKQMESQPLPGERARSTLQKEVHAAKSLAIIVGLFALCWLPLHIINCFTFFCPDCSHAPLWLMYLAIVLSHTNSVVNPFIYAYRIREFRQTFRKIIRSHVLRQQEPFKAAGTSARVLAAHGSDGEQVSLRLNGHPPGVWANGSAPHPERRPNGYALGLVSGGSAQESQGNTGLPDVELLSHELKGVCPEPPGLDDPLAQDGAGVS

Cytochrome P450 2C9, sequence (P11712 whole entry): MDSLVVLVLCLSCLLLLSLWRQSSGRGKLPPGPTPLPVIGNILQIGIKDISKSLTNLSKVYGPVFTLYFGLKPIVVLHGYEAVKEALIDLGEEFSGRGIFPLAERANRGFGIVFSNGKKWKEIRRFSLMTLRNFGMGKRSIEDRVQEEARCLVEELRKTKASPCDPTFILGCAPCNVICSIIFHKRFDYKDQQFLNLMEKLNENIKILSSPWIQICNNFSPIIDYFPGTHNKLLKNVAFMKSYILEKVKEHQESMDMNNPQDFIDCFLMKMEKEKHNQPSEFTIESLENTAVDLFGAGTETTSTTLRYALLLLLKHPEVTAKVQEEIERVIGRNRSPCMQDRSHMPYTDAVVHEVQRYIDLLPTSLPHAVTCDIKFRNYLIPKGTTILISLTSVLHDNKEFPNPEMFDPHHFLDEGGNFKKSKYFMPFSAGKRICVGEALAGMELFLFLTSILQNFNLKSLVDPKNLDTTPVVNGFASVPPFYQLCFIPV

| Compound | IC50 [1] | IC50 [2] | IC50 [3] | Ki [3] | IC50 [4] | IC50 [5] | Ki [5] | IC50 [6] | IC50 [7] | pIC50 ([7]; read-out: IC50) | pKi ([7]; read-out: Ki) | pIC50 ([1]; read-out: IC50) | pKi ([1]; read-out: Ki) |
| --- | --- | --- | --- | --- | --- | --- | --- | --- | --- | --- | --- | --- | --- |
| CC(=O)OCC(=O)[C@@]1(O)CC[C@H]2[C@@H]3CCC4=CC(=O)CC[C@]4(C)[C@@]3(F)[C@@H](O)C[C@@]21C [FLUDROCORTISONE ACETATE] | Not Active | Not Active | Not Active | Not Active | Not Active | Not Active | Not Active | Not Active | Not Active | – | – | – | – |
| CCOC(=O)c1ncn2c1CN(C)C(=O)c1cc(F)ccc1-2 [FLUMAZENIL] | Not Active | Not Active | Not Active | Not Active | Not Active | Not Active | Not Active | Not Active | Not Active | – | – | – | – |
| O=C(O)P(=O)(O)O [FOSCARNET] | Not Active | Not Active | Not Active | Not Active | Not Active | Not Active | Not Active | Not Active | Not Active | – | – | – | – |
| Cc1ccc(C)c(OCCCC(C)(C)C(=O)O)c1 [GEMFIBROZIL] | Not Active | Not Active | Not Active | Not Active | Not Active | Not Active | Not Active | Not Active | Not Active | – | – | – | – |
| O=c1c(-c2ccc(O)cc2)coc2cc(O)cc(O)c12 [GENISTEIN] | Not Active | Not Active | Not Active | Not Active | Not Active | Not Active | Not Active | Not Active | – | 4.76 | 5.01 | – | – |
| Nc1cc(-c2ccncc2)c[nH]c1=O [INAMRINONE] | Not Active | Not Active | Not Active | Not Active | Not Active | Not Active | Not Active | Not Active | Not Active | – | – | – | – |
| CCCCC1=NC2(CCCC2)C(=O)N1Cc1ccc(-c2ccccc2-c2nnn[nH]2)cc1 [IRBESARTAN] | Not Active | Not Active | Not Active | Not Active | Not Active | Not Active | Not Active | Not Active | Not Active | – | – | – | – |
| CN1CCC(=C2c3ccccc3CC(=O)c3sccc32)CC1 [KETOTIFEN] | – | Not Active | Not Active | Not Active | Not Active | Not Active | Not Active | Not Active | Not Active | – | – | 5.60 | 5.84 |
| C[N+](C)(C)C[C@H](O)CC(=O)[O-] [LEVOCARNITINE] | Not Active | Not Active | Not Active | Not Active | Not Active | Not Active | Not Active | Not Active | Not Active | – | – | – | – |
| C[C@H]1COc2c(N3CCN(C)CC3)c(F)cc3c(=O)c(C(=O)O)cn1c23.C[C@H]1COc2c(N3CCN(C)CC3)c(F)cc3c(=O)c(C(=O)O)cn1c23.O [LEVOFLOXACIN] | Not Active | Not Active | Not Active | Not Active | Not Active | Not Active | Not Active | Not Active | Not Active | – | – | – | – |
| CCn1cc(C(=O)O)c(=O)c2cc(F)c(N3CCNC(C)C3)c(F)c21 (centres undefined) [LOMEFLOXACIN] | Not Active | Not Active | Not Active | Not Active | Not Active | Not Active | Not Active | Not Active | Not Active | – | – | – | – |
| CN1CCCC(CN2c3ccccc3Sc3ccccc32)C1 (centres undefined) [MEPAZINE] | Not Active | Not Active | Not Active | Not Active | Not Active | Not Active | Not Active | Not Active | Not Active | – | – | – | – |
| Cc1cccc(C)c1NC(=O)C1CCCCN1C (centres undefined) [MEPIVACAINE] | Not Active | Not Active | Not Active | Not Active | Not Active | Not Active | Not Active | Not Active | Not Active | – | – | – | – |
